Data set [1] can be described thus: Solubility of gacyclidine base in squalene. The format is physicochemical. The protocol:
Squalene was added to 1 gram of gacyclidine free base in 1 milliliter aliquots until the gacyclidine base went into solution. The minimum amount of squalene required to dissolve 1 gram of gacyclidine base was 9 milliliters. A suspension of gacyclidine-containing squalene was prepared by adding 4.3 milliliters of the gacyclidine solution in squalene (1 gram gacyclidine base dissolved in 9 milliliters squalene), 0.5 milliliters of polysorbate 80, 0.5 milliliters of sorbitan trioleate, 35 milligrams of dipotassium phosphate, 1 milligram of citric acid, and 877 milligrams of sodium chloride to a graduated cylinder and bringing the mixture to a final volume of 100 milliliters with water. The suspension of squalene-gacyclidine in phosphate buffered saline was passed through a Microfluidics M-110S high pressure homogenizer equipped with a G10Z 87 micrometer ceramic interaction chamber at 23,000 pounds per square inch. After 7 passes through the homogenizer with the interaction chamber maintained in an ice bath, the average particle diameter of the squalene-gacyclidine emulsion was determined to be 135 nanometers by use of a Horiba LB-550 dynamic light scattering particle size analyzer. After 7 additional passes of the emulsion through the homogenizer with the interaction chamber maintained in an ice bath, the average particle diameter was determined to be 122 nanometers. After 7 additional passes of the emulsion through the homogenizer with the interaction chamber maintained in an ice bath, the average particle diameter was determined to be 114 nanometers. After 7 additional passes of the emulsion through the homogenizer with the interaction chamber maintained in an ice bath, the average particle diameter was determined to be 112 nanometers. Extensive analysis of the squalene-gacyclidine emulsion determined that the average particle diameter was between 107 to 123 nanometers. The pH and osmolality of the squalene-gacyclidine emulsion were determined to be 7.6 and 279 milliosmolal, respectively.

Data set [2] in a line: Binding of gacyclidine by PLGA nanoparticles (gacyclidine in suspension by HPLC). The format is physicochemical. From the text: Water (pH 7.2) was mixed with acetone solutions containing 2 grams/liter 5050 DLG 3E (PLGA, Lakeshore Biomaterials, solution A) or a solution of 2 grams/liter 5050 DLG 3E and 2 grams/liter gacyclidine base (solution B) or a solution of 2 grams/liter gacyclidine base (solution C). Rapid mixing was accomplished by pumping water into a T-mixer at 5 milliliters/minute and solution A, B, or C into the same T-mixer at 1 milliliter/minute.
Acetone was eliminated from the suspension of particles prepared by mixing water with solution B by stirring the suspension in an open beaker for three days. The particle suspension was then passed through a 0.2 micrometer polyethersulfone syringe filter (VWR International) to eliminate larger particles. […] These nanoparticles were then concentrated by pressure dialysis with a 10,000 MWCO cellulose membrane (Amicon) to a final volume of 17 milliliters. The average particle diameter in the concentrated suspension was determined to be 53 nanometers by dynamic light scattering.
To determine the gacyclidine concentration in the nanoparticle suspension, an aliquot (20 to 50 microliters) was diluted with 10 millimolar hydrochloric acid to a final volume of 1.8 milliliter and then analyzed by high-performance liquid chromatography. Gacyclidine in the concentrated suspension was determined to be 0.68 millimolar (0.18 grams/liter; 3.1 milligrams gacyclidine base; 8% of the initial gacyclidine). When this suspension was passed through a 0.2 micrometer polyethersulfone syringe filter (VWR International) it further reduced the concentration of gacyclidine to 0.23 millimolar (0.06 grams/liter; 1.0 milligrams gacyclidine base; 2.5% of the initial gacyclidine). […] After filtration of the pH 9.1 nanoparticle suspension through a 0.2 micrometer polyethersulfone syringe filter (VWR International) the concentration of particles was not reduced, based on light scattering intensity, nor was the average diameter of particles (58 nanometers, post-filtration) substantially altered. However, the concentration of gacyclidine present in the nanoparticle suspension, after adjusting the pH to 9.1 and passage through a 0.2 micrometer filter, was reduced to approximately 0.02 millimolar (0.005 grams/liter; 0.09 milligrams gacyclidine base; 0.2% of the initial gacyclidine). […] Very little of the gacyclidine in the initial nanoparticle preparation was bound to the PLGA nanoparticles, but was instead dissolved in the aqueous phase surrounding the particles.

Setting [3] is: concentrated PLGA suspension passed through 0.2 micrometer polyethersulfone syringe filter.
Where [4] appears, read: pH 9.1, passage through 0.2 micrometer filter.

With `CC1CCCCC1(c1cccs1)N1CCCCC1` (stereo not shown) [gacyclidine], the “limit of solubility in the squalene phase” value in data set [1] is recorded as 1 gram of gacyclidine for every 9 milliliters of squalene. Moreover, the “minimum amount of squalene required to dissolve 1 gram of gacyclidine base” value in data set [1] (squalene added in 1 milliliter aliquots) was determined as 9 milliliters. The “% of the initial gacyclidine in the concentrated suspension” value in data set [2] (PLGA+gacyclidine nanoparticles after 0.2 micrometer filtration and pressure dialysis concentration) is given as 8%. For the same compound, the “Gacyclidine in the concentrated suspension” value in data set [2] (PLGA+gacyclidine nanoparticles after 0.2 micrometer filtration and pressure dialysis concentration, HPLC) turned out to be 0.68 millimolar. Moreover, in data set [2] (based on final amount of gacyclidine remaining associated with PLGA nanoparticles), the “affinity for PLGA” value is reported as “does not have a high affinity for PLGA”. In data set [2] (setting [3]), the “% of the initial gacyclidine after passing concentrated suspension through 0.2 micrometer filter” value worked out at 2.5% and the “concentration of gacyclidine after passing concentrated suspension through 0.2 micrometer filter” value is 0.23 millimolar. Moreover, in data set [2] (setting [4]), the “% of the initial gacyclidine after adjusting pH to 9.1 and filtration” value is recorded as 0.2%; the “concentration of gacyclidine in the nanoparticle suspension after adjusting pH to 9.1 and filtration” value was “approximately 0.02 millimolar”.

Turning to `CNC1(c2ccccc2Cl)CCCCC1=O` (stereo not shown) [ketamine], the “limit of solubility in the squalene phase” value in data set [1] is “similar”.

For the origin of these results see US20120208851A1, “FORMULATIONS” (NEUROSYSTEC CORPORATION, priority 2008, published 2012).
